This is an account of results in publication PMC9228152, “New Amino Naphthoquinone Derivatives as Anti-Trypanosoma cruzi Agents Targeting Trypanothione Reductase” (Pharmaceutics, 2022).

In data set [1] the test system is T. cruzi epimastigotes, INC-5 strain. The data set can be described thus: Growth inhibition of T. cruzi epimastigotes, INC-5 strain. Format: cell-based, Trypanosoma cruzi. The following applies: Trypanosoma cruzi, 120 h, read-out: Epi INC-5 IC50. As to the method:
(§1) Epimastigotes from T. cruzi strains NINOA and INC-5 were cultured in BHI (brain heart infusion broth, 89%) axenic medium, as reported in [26], at an initial concentration of 1 × 10^6 parasites/mL, at 28 °C, supplemented with 10% foetal bovine serum and 1% sodium penicillin-streptomycin. […] On the last day, the absorbance of the cultures was measured and related to the control. All measurements were carried out in triplicate. No toxic effect was attributable to DMSO. Since parasite growth is exponential, the data were analysed according to a first order equation, and the respective growth constant (k), corresponding to the slope, was calculated for controls and parasites treated with different drug concentrations. From these measurements, percentage growth inhibition (%GI) and half-maximal inhibitory concentration (IC50) values were calculated.

Data set [2] has as its system T. cruzi epimastigotes, NINOA strain. The data set can be described thus: Growth inhibition of T. cruzi epimastigotes, NINOA strain. It counts as cell-based. The note with it: Trypanosoma cruzi, 120 h, read-out: Epi NINOA IC50. As to the method:
as §1

Data set [3] has as its system T. cruzi trypomastigotes, NINOA strain. The data set is described as follows: microbe, parasite or virus in culture. The note with it: Trypanosoma cruzi, read-out: Trypo NINOA LC50 (half-maximal lytic concentration). Format: cell-based. Here is the method: (§2) Those compounds with the lowest IC50 values in the epimastigote studies of each strain were evaluated in trypomastigotes. For this purpose, bloodstream trypomastigotes of INC-5 and NINOA strains were used for peritoneal injection into 6−8-week-old CD1 mice. The peak of parasitemia was achieved after 4–6 weeks, at which time parasitised blood samples were obtained by cardiac puncture using sodium heparin as an anticoagulant and diluted to a concentration of 1 × 10^6 trypomastigotes/mL. 10 µL of each of the dilutions of the study compounds and Bzn, with these being placed in a 96-well plate, and 90 µL of infected blood was added, providing a final volume of 100 µL per well. The microplates were incubated at 4 °C for 24 h, and concentrations of 20 µM, 10 µM, and 5 µM of each compound were considered in these experiments. Each evaluation was performed in triplicate. Wells with untreated blood trypomastigotes were used as a negative lysis control and Bzn as a positive control. Then, the degree of lysis of trypomastigotes was determined by their reduction in number using an optical microscope according to the Brener–Pizzi method. For this purpose, 5 μL of blood was placed between a slide and a 13 × 13 coverslip. Mobile trypomastigotes were counted in 15 microscope fields at 40× magnification. Quantification of the degree of lysis for each case was expressed as a percentage considering the number of viable trypomastigotes with respect to the negative control. The half-maximal lytic concentration (LC50) was determined by linear regression. The experiments were carried out in accordance with the recommendations and approval of the local Ethics and Research Committee (Approval number: ENCB/CEI/078/2020).

Data set [4] relates to T. cruzi trypomastigotes, INC-5 strain. The data set can be described thus: microbe, parasite or virus in culture. Format: cell-based. The note with it: Trypanosoma cruzi, read-out: Trypo INC-5 LC50 (half-maximal lytic concentration). Here is the method:
as §2

Data set [5] relates to J774 murine macrophages. The data set is described as follows: Cytotoxicity on J774 macrophages (MTT). It counts as cell-based. Here is the method: Cytotoxicity assays for the compounds selected for their trypanocidal activity were performed on J774 macrophage cells using the MTT method. For this purpose, 50,000 cells/well resuspended in RPMI medium and 2% foetal bovine serum were seeded in a 96-well plate and incubated for 24 h at 37 °C. […] After 24 h of incubation, the existing culture medium was replaced in the plate with fresh culture medium along with […] each of the compound dilutions (100 to 1.25 μM) and Bzn to a final volume of 100 µL per well. This plate was then incubated in 5% CO2 for 24 h at 37 °C. The controls used were cells with medium as a positive control and cells without culture medium as a negative control. After the 24 h incubation, the morphology of the macrophages was observed under a microscope and then the culture medium was removed again and the MTT solution (5 mg/mL) was added. After 1 h incubation at 37 °C, the absorbance at 570 nm was recorded on an Elisa Epoch reader. The following formula was used to calculate the % cytotoxicity: %cytotoxicity = (100 − (mean number of cells with treatment/cells without treatment) × 100).

The mark [6] stands for this setting: epimastigotes, INC-5 strain, five days, means of three independent experiments.
Setting [7] is: epimastigotes, NINOA strain, five days, means of three independent experiments.
The mark [8] stands for this setting: bloodstream trypomastigotes, NINOA strain, 24 h at 4 °C.
Where [9] appears, read: bloodstream trypomastigotes, INC-5 strain, 24 h at 4 °C.
Setting [10] is: Mus musculus, J774, 24 h, J774 macrophages, MTT, 24 h, read-out: J774 IC50.

Read-outs that look alike come from different tables or passages of the source.

In general, IC50 refers to the concentration needed to halve the response being measured. Regarding `O=C1C=C(NCCN2CCOCC2)C(=O)c2ccccc21` [Compound 2a, 2-((2-Morpholinoethyl)amino)naphthalene-1,4-dione], the IC50 in data set [1] (setting [6]) worked out at 3.06 ± 0.01 µM; in data set [2] (setting [7]) it was 1.1 ± 0.12 µM. The LC50 in data set [3] (setting [8]) and in data set [4] (setting [9]) was more than 100 µM throughout.
In the case of `O=C1C(Cl)=C(NCCN2CCOCC2)C(=O)c2ccccc21` [Compound 2b, 2-Chloro-3-((2-morpholinoethyl)amino)naphthalene-1,4-dione], the 50% inhibitory concentration (IC50) in data set [1] (setting [6]) is 2.98 ± 0.2 µM; in data set [2] (setting [7]), 1.1 ± 0.05 µM. Moreover, the LC50 in data set [3] (setting [8]) and in data set [4] (setting [9]) was more than 100 µM each time.
Take `O=C1C(Br)=C(NCCN2CCOCC2)C(=O)c2ccccc21` [Compound 2c, 2-Bromo-3-((2-morpholinoethyl)amino)naphthalene-1,4-dione]: the concentration for half-maximal inhibition (IC50) was found to be 2.22 ± 0.04 µM in data set [1] (setting [6]) and 1.14 ± 0.06 µM in data set [2] (setting [7]). The LC50 in data set [3] (setting [8]) and in data set [4] (setting [9]) was more than 100 µM in each case.
`O=C1C=C(N2CCN(C3CCCC3)CC2)C(=O)c2ccccc21` [Compound 2d, 2-(4-Cyclopentylpiperazin-1-yl)naphthalene-1,4-dione]: the concentration for half-maximal inhibition (IC50) amounted to 5.04 ± 0.26 µM in data set [1] (setting [6]) and 1.12 ± 0.04 µM in data set [2] (setting [7]). The results for the LC50 in data set [3] (setting [8]) and in data set [4] (setting [9]) were more than 100 µM and 87.3 ± 5.32 µM, respectively.
As to `O=C1C(Cl)=C(N2CCN(C3CCCC3)CC2)C(=O)c2ccccc21` [Compound 2e, 2-Chloro-3-(4-cyclopentylpiperazin-1-yl)naphthalene-1,4-dione], the IC50 in data set [2] (setting [7]) turned out to be 0.43 ± 0.15 µM. Besides, the LC50 in data set [3] (setting [8]) and in data set [4] (setting [9]) was more than 100 µM in each case.
On to `O=C1C(Br)=C(N2CCN(C3CCCC3)CC2)C(=O)c2ccccc21` [Compound 2f, 2-Bromo-3-(4-cyclopentylpiperazin-1-yl)naphthalene-1,4-dione], for which the results for the half-inhibitory concentration (IC50) in data set [1] (setting [6]) and in data set [2] (setting [7]) were 1.46 ± 0.03 µM and 1.15 ± 0.09 µM, respectively. For the same molecule, the LC50 in data set [3] (setting [8]) was 97.9 ± 2.13 µM; in data set [4] (setting [9]), more than 100 µM.
For orientation: melting point means the temperature of the solid-liquid transition. `O=C1C=C(N2CCC(N3CCOCC3)CC2)C(=O)c2ccccc21` [Compound 2g, 2-(4-Morpholinopiperidin-1-yl)naphthalene-1,4-dione] had a melting point of 151 to 153 °C. In addition, the 50% inhibitory concentration (IC50) in data set [1] (setting [6]) turned out to be 8.45 ± 0.35 µM. Moreover, in data set [2] (setting [7]), the IC50 is 7.05 ± 0.95 µM.
The like results for `O=C1C(Cl)=C(N2CCC(N3CCOCC3)CC2)C(=O)c2ccccc21` [Compound 2h, 2-Chloro-3-(4-morpholinopiperidin-1-yl)naphthalene-1,4-dione] were, in that order, 145 to 146 °C, 6.6 ± 0.08 µM and 6.4 ± 0.02 µM.
Molecule `O=C1C(Br)=C(N2CCC(N3CCOCC3)CC2)C(=O)c2ccccc21` [Compound 2i, 2-Bromo-3-(4-morpholinopiperidin-1-yl)naphthalene-1,4-dione] came in with a melting point of 148 to 149 °C. In data set [1] (setting [6]), the half-maximal inhibitory concentration (IC50) was 1.74 ± 0.02 µM. Besides, the half-maximal inhibitory concentration (IC50) in data set [2] (setting [7]) worked out at 10.1 ± 0.05 µM.
The like results for `O=C(NC1CCN(C2=C(Cl)C(=O)c3ccccc3C2=O)CC1)c1ccccc1Br` [Compound 7a, 2-Bromo-N-(1-(3-chloro-1,4-dioxo-1,4-dihydronaphthalen-2-yl)piperidin-4-yl)benzamide] were, in that order, 197 to 198 °C, 2.46 ± 0.08 µM and 6.41 ± 0.02 µM.
Consider `O=C(NC1CCN(C2=C(Cl)C(=O)c3ccccc3C2=O)CC1)c1ccc([N+](=O)[O-])cc1` [Compound 7b, N-(1-(3-chloro-1,4-dioxo-1,4-dihydronaphthalen-2-yl)piperidin-4-yl)-4-nitrobenzamide], for which the IC50 in data set [1] (setting [6]) was 2.23 ± 0.06 µM; in data set [2] (setting [7]), 0.77 ± 0.21 µM. For the same molecule, the LC50 in data set [3] (setting [8]) was 80.3 ± 4.03 µM; in data set [4] (setting [9]), more than 100 µM.
With `O=C(NC1CCN(C2=C(Cl)C(=O)c3ccccc3C2=O)CC1)c1cccc(Cl)c1` [Compound 7c, 3-Chloro-N-(1-(3-chloro-1,4-dioxo-1,4-dihydronaphthalen-2-yl)piperidin-4-yl)benzamide], the results for the IC50 in data set [1] (setting [6]), in data set [5] (setting [10]) and in data set [2] (setting [7]) were 1.14 ± 0.07 µM, approximately 25 µM and 0.52 ± 0.04 µM, respectively. The LC50 was 68.4 ± 6.3 µM in data set [3] (setting [8]) and more than 100 µM in data set [4] (setting [9]).
As for `O=C(NC1CCN(C2=C(Cl)C(=O)c3ccccc3C2=O)CC1)c1ccc(CCl)cc1` [Compound 7d, N-(1-(3-chloro-1,4-dioxo-1,4-dihydronaphthalen-2-yl)piperidin-4-yl)-4-(chloromethyl)benzamide], the results for the IC50 in data set [1] (setting [6]) and in data set [2] (setting [7]) were 2.3 ± 0.11 µM and 1.25 ± 0.06 µM, respectively. Besides, the LC50 in data set [3] (setting [8]) and in data set [4] (setting [9]) was more than 100 µM in each case.
As to `Cc1cc(C)cc(C(=O)NC2CCN(C3=C(Cl)C(=O)c4ccccc4C3=O)CC2)c1` [Compound 7e, N-(1-(3-chloro-1,4-dioxo-1,4-dihydronaphthalen-2-yl)piperidin-4-yl)-3,5-dimethylbenzamide], the melting point lay within 206 to 208 °C. The half-maximal inhibitory concentration (IC50) in data set [1] (setting [6]) stood at 5.6 ± 0.03 µM. In addition, the concentration for half-maximal inhibition (IC50) in data set [2] (setting [7]) stood at 4.45 ± 0.06 µM.
As for `O=C(NC1CCN(C2=C(Cl)C(=O)c3ccccc3C2=O)CC1)c1cc([N+](=O)[O-])cc([N+](=O)[O-])c1` [Compound 7f, N-(1-(3-chloro-1,4-dioxo-1,4-dihydronaphthalen-2-yl)piperidin-4-yl)-3,5-dinitrobenzamide], the IC50 in data set [1] is 1.84 ± 0.06 µM; in data set [5] (Mus musculus, J774, 24 h, read-out: J774 IC50, J774 macrophages, MTT, 24 h) it was approximately 25 µM; in data set [2] it was 0.99 ± 0.01 µM. The LC50 in data set [3] (24 h) was found to be 70.9 ± 7.31 µM; in data set [4] (24 h), 98.6 ± 8.2 µM.
`O=C(NC1CCN(C2=C(Cl)C(=O)c3ccccc3C2=O)CC1)c1cc(F)cc(Cl)c1` [Compound 7g, 3-Chloro-N-(1-(3-chloro-1,4-dioxo-1,4-dihydronaphthalen-2-yl)piperidin-4-yl)-5-fluorobenzamide]: the IC50 came to 2.57 ± 0.04 µM in data set [1] (setting [6]) and 3.55 ± 0.02 µM in data set [2] (setting [7]). Moreover, the LC50 in data set [3] (setting [8]) and in data set [4] (setting [9]) was more than 100 µM each time.
`COc1ccc(C(=O)NC2CCN(C3=C(Cl)C(=O)c4ccccc4C3=O)CC2)cc1F` [Compound 7h, N-(1-(3-chloro-1,4-dioxo-1,4-dihydronaphthalen-2-yl)piperidin-4-yl)-3-fluoro-4-methoxybenzamide]: the 50% inhibitory concentration (IC50) in data set [1] (setting [6]) was 1.35 ± 0.01 µM; in data set [5] (J774 macrophages, MTT, 24 h, read-out: J774 IC50), 22 µM; in data set [5] (setting [10]), approximately 25 µM; in data set [2] (setting [7]), 0.84 ± 0.11 µM. Further, the LC50 in data set [3] (setting [8]) was found to be 78.6 ± 3.91 µM; in data set [4] (setting [9]), 94.7 ± 5.21 µM.
Consider `O=C1C(Cl)=C(N2CCC(NC(=O)c3ccc(C(F)(F)F)cc3[N+](=O)[O-])CC2)C(=O)c2ccccc21` [Compound 7i, N-(1-(3-chloro-1,4-dioxo-1,4-dihydronaphthalen-2-yl)piperidin-4-yl)-2-nitro-4-(trifluoromethyl)benzamide], for which the values for the IC50 in data set [1] (setting [6]) and in data set [2] (setting [7]) were 3.35 ± 0.05 µM and 1.09 ± 0.01 µM, respectively. Also, the values for the LC50 in data set [3] (setting [8]) and in data set [4] (setting [9]) were 90.5 ± 6.58 µM and more than 100 µM, respectively.
